# Tests used:
# [1] = target: T1, 3',5'-cyclic-AMP phosphodiesterase 4D (Homo sapiens, UniProt Q08499); assay: Inhibition of PDE4D (unknown origin) at 2 uM relative to control
# [2] = target: High affinity 3',5'-cyclic-AMP phosphodiesterase 7A (Homo sapiens, UniProt Q13946); assay: Inhibition of human PDE7A at 2 uM relative to control
# [3] = target: 3',5'-cyclic-AMP phosphodiesterase 4A (Homo sapiens, UniProt P27815); assay: Inhibition of PDE4A (unknown origin) at 2 uM relative to control
# [4] = target: T2, 3',5'-cyclic-AMP phosphodiesterase 4B (Homo sapiens, UniProt Q07343); assay: Inhibition of PDE4B (unknown origin) at 2 uM relative to control
# [5] = Inhibition of recombinant human PDE4B2B (1 to 564 residues) expressed in Saccharomyces cerevisiae using cAMP as substrate preincubated for 30 mins followed by cAMP addition and measured after 60 mins by luminescence method
# Phosphodiesterase 4 [6] = target: T3, Phosphodiesterase 4 (Homo sapiens, UniProt P27815+Q08499+Q07343+Q08493); assay: Inhibition of PDE4 (unknown origin); format: protein assay
# [7] = target: T2, 3',5'-cyclic-AMP phosphodiesterase 4B; assay: Inhibition of human brain PDE4B catalytic domain using cAMP as substrate incubated for 1 hr by luminescence method
# [8] = target: T1, 3',5'-cyclic-AMP phosphodiesterase 4D; assay: Inhibition of PDE4D (unknown origin)
# [9] = Inhibition of guinea-pig platelet derived PDE3; design: species or system Cavia porcellus
# [10] = Inhibition of guinea-pig neutrophil derived PDE4; design: species or system Cavia porcellus
# Phosphodiesterase 4 [11] = target: T3, Phosphodiesterase 4; assay: Inhibition of PDE4 in human U937 cell lysate using cAMP as substrate by LANCE assay; format: subcellular; conditions: u-937
# [12] = target: T1, 3',5'-cyclic-AMP phosphodiesterase 4D; assay: Inhibition of human PDE4D2 catalytic domain (86 to 413 residues) expressed in Escherichia coli BL21 cells using 3H-cGMP or 3H-cAMP as substrate by liquid scintillation counting method
# [13] = target: 3',5'-cyclic-AMP phosphodiesterase 4C (Homo sapiens, UniProt Q08493); assay: Inhibition of N-terminal GST tagged full length human PDE4C1 expressed in baculovirus infected Sf9 cell expression system using cAMP as substrate incubated for 60 mins by time-resolved fluorescence competitive immunoassay
# [14] = target: T2, 3',5'-cyclic-AMP phosphodiesterase 4B; assay: Inhibition of N-terminal GST tagged full length human PDE4B2 expressed in baculovirus infected Sf9 cell expression system using cAMP as substrate incubated for 60 mins by time-resolved fluorescence competitive immunoassay
# Phosphodiesterase 4 [15] = target: T3, Phosphodiesterase 4; assay: Inhibition of human U-937 cell derived PDE4 using [3H]-cAMP or [3H]-cGMP as substrate incubated for 60 mins by scintillation proximity assay; format: protein assay
# Phosphodiesterase 4 [16] = target: T3, Phosphodiesterase 4; assay: Inhibition of human PDE4 using [3H]cAMP as substrate incubated for 30 mins; format: protein assay
# [17] = Inhibition of bovine aorta cytosolic PDE4 using cyclic AMP as substrate by liquid scintillation counting; design: species or system Bos taurus
# [18] = target: T2, 3',5'-cyclic-AMP phosphodiesterase 4B; assay: Inhibition of PDE4B (unknown origin)
# [19] = target: Mitogen-activated protein kinase 14 (Homo sapiens, UniProt Q16539); assay: Inhibition of P38 alpha MAPK (unknown origin)
# [20] = target: Mitogen-activated protein kinase 10 (Homo sapiens, UniProt P53779); assay: Inhibition of JNK3 (unknown origin)
# [21] = target: T2, 3',5'-cyclic-AMP phosphodiesterase 4B; assay: Inhibition of recombinant N-terminal GST-tagged full length human PDE4B1 expressed in baculovirus infected Sf9 cells […] as substrate by HPLC-MS method
# [22] = Induction of FEV1 in COPD patient at 18 ug/kg administered as single dose; format: functional, Homo sapiens; conditions: dose 18 µg/kg
# [23] = Inhibition of PDE4B2B (152 to 528 residues) (unknown origin) by liquid scintillation counting method; design: species or system Homo sapiens
# T2 sequence (Q07343 whole entry, the tested form may be a part): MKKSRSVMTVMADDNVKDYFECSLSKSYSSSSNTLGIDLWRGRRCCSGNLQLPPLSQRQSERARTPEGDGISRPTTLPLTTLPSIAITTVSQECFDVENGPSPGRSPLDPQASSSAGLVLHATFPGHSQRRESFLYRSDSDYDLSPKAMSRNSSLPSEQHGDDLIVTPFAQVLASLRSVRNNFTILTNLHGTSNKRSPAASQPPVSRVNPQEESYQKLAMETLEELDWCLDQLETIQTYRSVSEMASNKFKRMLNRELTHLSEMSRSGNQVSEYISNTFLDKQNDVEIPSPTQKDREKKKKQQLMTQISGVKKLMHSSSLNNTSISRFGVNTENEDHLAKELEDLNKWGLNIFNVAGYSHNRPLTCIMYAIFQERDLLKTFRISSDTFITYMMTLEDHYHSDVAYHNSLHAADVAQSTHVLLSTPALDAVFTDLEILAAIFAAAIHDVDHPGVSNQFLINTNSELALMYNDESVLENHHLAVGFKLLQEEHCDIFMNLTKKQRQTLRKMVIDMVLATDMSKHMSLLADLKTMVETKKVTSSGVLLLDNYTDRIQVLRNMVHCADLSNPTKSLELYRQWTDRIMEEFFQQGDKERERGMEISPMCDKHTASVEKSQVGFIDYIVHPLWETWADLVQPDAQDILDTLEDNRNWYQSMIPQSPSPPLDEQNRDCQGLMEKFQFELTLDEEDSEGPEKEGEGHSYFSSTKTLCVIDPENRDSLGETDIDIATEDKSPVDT
# T1 sequence (Q08499 whole entry): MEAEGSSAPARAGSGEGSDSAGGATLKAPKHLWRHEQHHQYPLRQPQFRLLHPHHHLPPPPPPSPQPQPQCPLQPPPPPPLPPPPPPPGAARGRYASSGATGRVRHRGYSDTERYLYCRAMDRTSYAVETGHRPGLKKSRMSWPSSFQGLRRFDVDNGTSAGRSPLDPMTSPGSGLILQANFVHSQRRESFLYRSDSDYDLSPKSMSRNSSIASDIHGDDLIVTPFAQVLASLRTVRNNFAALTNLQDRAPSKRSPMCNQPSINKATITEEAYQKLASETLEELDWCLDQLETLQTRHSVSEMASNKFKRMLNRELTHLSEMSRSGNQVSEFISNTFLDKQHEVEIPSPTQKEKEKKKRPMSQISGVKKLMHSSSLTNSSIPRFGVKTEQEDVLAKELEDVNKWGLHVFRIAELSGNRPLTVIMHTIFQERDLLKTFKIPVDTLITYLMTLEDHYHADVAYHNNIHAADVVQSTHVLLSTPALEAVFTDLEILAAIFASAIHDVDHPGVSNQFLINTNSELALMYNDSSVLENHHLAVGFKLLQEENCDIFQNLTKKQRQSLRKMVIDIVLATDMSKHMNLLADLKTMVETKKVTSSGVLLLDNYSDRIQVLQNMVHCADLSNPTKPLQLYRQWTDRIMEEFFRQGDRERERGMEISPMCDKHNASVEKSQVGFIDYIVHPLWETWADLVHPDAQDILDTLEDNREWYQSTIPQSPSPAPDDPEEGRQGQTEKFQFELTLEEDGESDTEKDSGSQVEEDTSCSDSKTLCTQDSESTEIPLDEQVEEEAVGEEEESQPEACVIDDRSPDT
# 3',5'-cyclic-AMP phosphodiesterase 4C, sequence (Q08493 whole entry): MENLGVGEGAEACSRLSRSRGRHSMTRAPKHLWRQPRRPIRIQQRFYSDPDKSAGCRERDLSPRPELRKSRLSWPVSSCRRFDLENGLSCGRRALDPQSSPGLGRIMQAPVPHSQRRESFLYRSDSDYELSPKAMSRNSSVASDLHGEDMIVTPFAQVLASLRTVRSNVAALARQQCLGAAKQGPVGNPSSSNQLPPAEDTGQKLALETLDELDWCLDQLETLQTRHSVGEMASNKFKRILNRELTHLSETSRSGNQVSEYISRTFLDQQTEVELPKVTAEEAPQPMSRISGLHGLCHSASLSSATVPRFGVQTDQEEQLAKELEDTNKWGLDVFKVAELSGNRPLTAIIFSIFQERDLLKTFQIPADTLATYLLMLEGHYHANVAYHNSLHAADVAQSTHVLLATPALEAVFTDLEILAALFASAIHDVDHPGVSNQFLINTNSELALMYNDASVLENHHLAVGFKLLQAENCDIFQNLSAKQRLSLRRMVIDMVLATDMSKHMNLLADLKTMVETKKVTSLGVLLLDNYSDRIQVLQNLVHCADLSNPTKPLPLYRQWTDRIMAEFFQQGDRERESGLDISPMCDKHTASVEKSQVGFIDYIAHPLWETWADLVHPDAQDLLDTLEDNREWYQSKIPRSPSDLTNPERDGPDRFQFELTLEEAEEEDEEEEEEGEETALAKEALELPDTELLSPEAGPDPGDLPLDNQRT
# 3',5'-cyclic-AMP phosphodiesterase 4A, sequence (P27815 whole entry): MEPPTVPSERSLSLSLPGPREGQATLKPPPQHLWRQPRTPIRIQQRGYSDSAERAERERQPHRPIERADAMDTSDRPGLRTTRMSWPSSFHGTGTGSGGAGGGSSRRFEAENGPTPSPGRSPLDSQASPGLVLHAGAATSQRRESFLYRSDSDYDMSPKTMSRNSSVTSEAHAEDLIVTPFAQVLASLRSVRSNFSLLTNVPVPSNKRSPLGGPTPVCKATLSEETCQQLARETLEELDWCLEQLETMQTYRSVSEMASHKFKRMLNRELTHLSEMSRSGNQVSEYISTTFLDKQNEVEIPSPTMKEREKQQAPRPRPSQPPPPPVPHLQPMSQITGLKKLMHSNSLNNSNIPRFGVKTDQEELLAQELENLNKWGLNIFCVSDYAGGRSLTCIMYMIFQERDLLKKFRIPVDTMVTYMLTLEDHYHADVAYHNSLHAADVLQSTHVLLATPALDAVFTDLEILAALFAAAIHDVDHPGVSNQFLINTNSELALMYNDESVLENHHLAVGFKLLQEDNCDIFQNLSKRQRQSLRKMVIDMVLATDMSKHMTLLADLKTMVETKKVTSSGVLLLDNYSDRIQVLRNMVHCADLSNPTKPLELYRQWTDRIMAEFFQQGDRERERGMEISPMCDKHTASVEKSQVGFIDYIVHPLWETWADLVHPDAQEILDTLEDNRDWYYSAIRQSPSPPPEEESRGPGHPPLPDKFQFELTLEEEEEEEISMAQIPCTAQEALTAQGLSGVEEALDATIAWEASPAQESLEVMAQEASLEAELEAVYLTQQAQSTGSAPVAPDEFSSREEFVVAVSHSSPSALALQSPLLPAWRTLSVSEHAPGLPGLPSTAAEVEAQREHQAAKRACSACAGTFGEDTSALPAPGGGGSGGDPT
# High affinity 3',5'-cyclic-AMP phosphodiesterase 7A, sequence (Q13946 whole entry): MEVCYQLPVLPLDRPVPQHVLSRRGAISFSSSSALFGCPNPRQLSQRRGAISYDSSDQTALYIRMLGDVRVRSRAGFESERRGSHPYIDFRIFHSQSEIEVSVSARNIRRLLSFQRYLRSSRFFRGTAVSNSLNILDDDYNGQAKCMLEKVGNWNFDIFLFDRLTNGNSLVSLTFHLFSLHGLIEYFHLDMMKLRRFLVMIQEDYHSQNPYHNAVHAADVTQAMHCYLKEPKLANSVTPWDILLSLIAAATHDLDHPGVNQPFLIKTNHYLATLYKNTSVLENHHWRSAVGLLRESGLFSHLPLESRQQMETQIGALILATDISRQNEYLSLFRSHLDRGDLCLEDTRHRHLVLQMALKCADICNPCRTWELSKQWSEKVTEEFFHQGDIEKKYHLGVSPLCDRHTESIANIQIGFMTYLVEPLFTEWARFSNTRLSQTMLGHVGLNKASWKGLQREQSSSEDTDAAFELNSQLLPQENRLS
# Mitogen-activated protein kinase 14, sequence (Q16539 whole entry): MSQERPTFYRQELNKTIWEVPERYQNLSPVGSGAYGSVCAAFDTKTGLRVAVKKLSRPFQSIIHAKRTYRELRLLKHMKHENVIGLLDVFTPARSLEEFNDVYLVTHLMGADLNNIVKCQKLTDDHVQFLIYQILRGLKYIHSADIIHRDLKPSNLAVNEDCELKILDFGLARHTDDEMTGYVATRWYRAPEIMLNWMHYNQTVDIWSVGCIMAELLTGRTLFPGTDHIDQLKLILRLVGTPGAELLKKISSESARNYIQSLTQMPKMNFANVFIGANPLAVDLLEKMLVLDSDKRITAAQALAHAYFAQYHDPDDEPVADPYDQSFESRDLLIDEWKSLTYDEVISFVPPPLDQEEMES
# Mitogen-activated protein kinase 10, sequence (P53779 whole entry): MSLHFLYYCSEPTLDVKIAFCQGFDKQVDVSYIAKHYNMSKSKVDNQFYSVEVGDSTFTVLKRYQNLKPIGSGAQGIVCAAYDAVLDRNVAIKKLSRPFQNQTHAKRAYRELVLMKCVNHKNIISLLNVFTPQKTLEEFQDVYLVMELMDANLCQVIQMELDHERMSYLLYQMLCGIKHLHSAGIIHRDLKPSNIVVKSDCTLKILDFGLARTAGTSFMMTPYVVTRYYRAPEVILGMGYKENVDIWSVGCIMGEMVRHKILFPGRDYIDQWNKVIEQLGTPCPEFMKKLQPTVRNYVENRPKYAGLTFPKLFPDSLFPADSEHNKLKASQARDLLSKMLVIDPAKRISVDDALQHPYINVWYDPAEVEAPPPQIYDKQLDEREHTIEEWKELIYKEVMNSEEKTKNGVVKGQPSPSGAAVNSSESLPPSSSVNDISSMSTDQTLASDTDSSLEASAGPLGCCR
smiles,measurement,setting,value
Cc1c(C(=O)Nc2ccc(F)cc2F)sc2ncnc(N3CCN(C)CC3)c12,inhibition,[1],64%
same,inhibition,[2],98%
same,inhibition,[3],64%
same,inhibition,[4],64%
CCn1ncc2c(NC3CCOCC3)c(-c3nnc(Cc4sc(C)nc4C)o3)cnc21,pIC50,[5],8.8
CCOc1ccc(-c2nc(-c3cccc(C(=O)O)n3)cs2)cc1OCC [TETOMILAST],IC50,Phosphodiesterase 4 [6],74 nM
O=C(NC1CC1)c1cn(-c2cccc(-c3ccc([C@@H]4C[C@H]4C(=O)O)c(F)c3)c2)c2ncccc2c1=O,IC50,Phosphodiesterase 4 [6],0.6 nM
CC(C)Nc1nccc(-c2c(C3CC3)nn3ccccc23)n1,IC50,[7],1200 nM
CC1CN(C(=O)CO/N=C/c2ccc(OC(F)F)c(OC3CCCC3)c2)CC(C)O1 (stereo unspecified),IC50,[8],800 nM
COc1cc2c(cc1OC)[C@@H]1CN(C)CC[C@@H]1N=C2c1ccc(NC(C)=O)cc1 [BENAFENTRINE],IC50,[9],1740 nM
same,IC50,[10],1760 nM
CS(=O)(=O)Nc1ccc(C(=O)O[C@@H](Cc2c(Cl)c[n+]([O-])cc2Cl)c2ccc(OC(F)F)c(OCC3CC3)c2)cc1OCC1CC1,IC50,Phosphodiesterase 4 [11],0.026 nM
COc1ccc([C@@]2(c3cccc(OC)c3)c3cc(O)ccc3-c3ccc(C=O)c(C#Cc4ccc(O)cc4)c32)cc1,IC50,[12],11 nM
CCOc1cc([C@H](CS(C)(=O)=O)N2C(=O)c3cccc(NC(=O)OCCOCCOCCOCCOCCOCCOCCOCCOC)c3C2=O)ccc1OC,IC50,[13],3 nM
same,IC50,[14],3 nM
CNc1nc(-c2cccc(NC(=O)c3ccc(C(=O)OC)cc3)c2)c2cc(OC)c(OC)cc2n1 [LOTAMILAST],IC50,Phosphodiesterase 4 [15],2.8 nM
O=C(Nc1c(Cl)c[n+]([O-])cc1Cl)c1ccc(OC(F)F)c2oc3ccncc3c12,IC50,Phosphodiesterase 4 [6],3 nM
COc1ccc(C2=CNC(=O)N(Cc3nc4cccc(C#N)c4o3)C2)cc1OC1CCCC1,IC50,Phosphodiesterase 4 [16],12 nM
CCOc1cc2c(cc1OCC)C(c1ccc(CCCN3CCN(c4ccc(Cl)cc4)CC3)cc1)=NCC(=O)N2,IC50,[17],40 nM
CC(=O)Nc1ccc(-c2c(-c3ccc(F)cc3)nc([S+](C)[O-])n2C)cn1 (stereo unspecified),IC50,[18],200 nM
same,IC50,[19],500 nM
same,IC50,[20],700 nM
CCOc1cc(C(CS(C)(=O)=O)N2C(=O)c3csc(NC(C)=O)c3C2=O)ccc1OC (stereo unspecified),IC50,[21],26 nM
COc1cc2c(cc1OC)-c1c/c(=N\c3c(C)cc(C)cc3C)n(CCNC(N)=O)c(=O)n1CC2 [ENSIFENTRINE],Activity,[22],>15%
CC(C)CC(=O)c1ccc(OC(F)F)c(OC2CCOC2)c1 (stereo unspecified),IC50,[23],20 nM
COc1ccc(C(Cc2c(Cl)cncc2Cl)OC(=O)c2ccc(OC(F)F)c(OCC3CC3)c2)cc1OC (stereo unspecified),IC50,Phosphodiesterase 4 [6],0.2 nM
O=C(Nc1c(Cl)cncc1Cl)C(=O)c1cn(Cc2ccc(F)cc2)c2ncccc12 [ELBIMILAST],IC50,Phosphodiesterase 4 [6],3 nM
O=C(O/C(=C\c1c(Cl)cncc1Cl)c1ccc(OC(F)F)c(OCC2CC2)c1)c1ccc(OC(F)F)c(OCC2CC2)c1,IC50,Phosphodiesterase 4 [6],0.9 nM
CCOc1cc([C@H](CS(C)(=O)=O)N2C(=O)c3cccc(NC(=O)OCCOCCOCCOCCOCCOCCOC)c3C2=O)ccc1OC,IC50,[13],3 nM
same,IC50,[14],3 nM
COc1ccc(C2=NN(C3CCN(S(=O)(=O)c4ccccc4C)CC3)C(=O)C(C)(C)C2)cc1OC,pIC50,Phosphodiesterase 4 [6],9.45

# Source: ChEMBL document CHEMBL4725222, “Advances in the Development of Phosphodiesterase-4 Inhibitors” (J Med Chem, 2020)
